The source made the active and inactive calls.
What was measured:
[1] = molecular target: Dual specificity protein kinase CLK2 (Homo sapiens, UniProt P49760)
UMP-CMP kinase = molecular target: T1, UMP-CMP kinase (Homo sapiens, UniProt P30085)
T1 sequence (P30085 whole entry): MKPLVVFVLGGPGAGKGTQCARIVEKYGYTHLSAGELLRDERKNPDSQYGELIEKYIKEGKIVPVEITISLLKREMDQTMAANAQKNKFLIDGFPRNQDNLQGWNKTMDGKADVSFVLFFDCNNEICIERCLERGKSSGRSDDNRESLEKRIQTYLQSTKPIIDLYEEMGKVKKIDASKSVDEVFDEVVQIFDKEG

Ephrin type-A receptor 1 = molecular target: T2, Ephrin type-A receptor 1 (Homo sapiens, UniProt P21709)
T2 sequence (P21709 whole entry): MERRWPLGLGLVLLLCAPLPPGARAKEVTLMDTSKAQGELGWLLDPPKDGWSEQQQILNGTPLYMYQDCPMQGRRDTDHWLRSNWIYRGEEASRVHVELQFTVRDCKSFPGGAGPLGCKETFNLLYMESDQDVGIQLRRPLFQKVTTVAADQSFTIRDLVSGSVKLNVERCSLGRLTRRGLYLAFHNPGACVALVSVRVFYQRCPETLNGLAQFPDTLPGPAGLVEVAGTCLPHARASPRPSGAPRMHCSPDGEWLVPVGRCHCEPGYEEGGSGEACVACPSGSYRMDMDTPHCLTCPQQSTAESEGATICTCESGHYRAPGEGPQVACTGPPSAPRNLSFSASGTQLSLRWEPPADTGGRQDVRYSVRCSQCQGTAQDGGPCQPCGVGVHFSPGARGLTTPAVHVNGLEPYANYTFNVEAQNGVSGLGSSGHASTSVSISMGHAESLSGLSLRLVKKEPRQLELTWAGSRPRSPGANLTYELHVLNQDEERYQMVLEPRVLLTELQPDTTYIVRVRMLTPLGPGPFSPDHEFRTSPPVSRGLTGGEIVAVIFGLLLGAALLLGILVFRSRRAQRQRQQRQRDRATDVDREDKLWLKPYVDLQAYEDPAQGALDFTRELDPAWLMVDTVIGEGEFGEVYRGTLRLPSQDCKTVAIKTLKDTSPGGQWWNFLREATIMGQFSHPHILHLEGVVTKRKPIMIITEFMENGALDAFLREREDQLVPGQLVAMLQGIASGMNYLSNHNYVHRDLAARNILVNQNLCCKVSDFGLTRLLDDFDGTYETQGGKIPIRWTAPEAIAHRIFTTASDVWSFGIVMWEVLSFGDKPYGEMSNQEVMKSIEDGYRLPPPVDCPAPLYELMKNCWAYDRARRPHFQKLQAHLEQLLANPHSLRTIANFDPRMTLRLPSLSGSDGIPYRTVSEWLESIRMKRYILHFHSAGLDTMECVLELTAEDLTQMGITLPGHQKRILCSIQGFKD

[2] = molecular target: T3, Receptor-type tyrosine-protein kinase FLT3 (Homo sapiens, UniProt P36888)
T3 sequence (P36888 whole entry): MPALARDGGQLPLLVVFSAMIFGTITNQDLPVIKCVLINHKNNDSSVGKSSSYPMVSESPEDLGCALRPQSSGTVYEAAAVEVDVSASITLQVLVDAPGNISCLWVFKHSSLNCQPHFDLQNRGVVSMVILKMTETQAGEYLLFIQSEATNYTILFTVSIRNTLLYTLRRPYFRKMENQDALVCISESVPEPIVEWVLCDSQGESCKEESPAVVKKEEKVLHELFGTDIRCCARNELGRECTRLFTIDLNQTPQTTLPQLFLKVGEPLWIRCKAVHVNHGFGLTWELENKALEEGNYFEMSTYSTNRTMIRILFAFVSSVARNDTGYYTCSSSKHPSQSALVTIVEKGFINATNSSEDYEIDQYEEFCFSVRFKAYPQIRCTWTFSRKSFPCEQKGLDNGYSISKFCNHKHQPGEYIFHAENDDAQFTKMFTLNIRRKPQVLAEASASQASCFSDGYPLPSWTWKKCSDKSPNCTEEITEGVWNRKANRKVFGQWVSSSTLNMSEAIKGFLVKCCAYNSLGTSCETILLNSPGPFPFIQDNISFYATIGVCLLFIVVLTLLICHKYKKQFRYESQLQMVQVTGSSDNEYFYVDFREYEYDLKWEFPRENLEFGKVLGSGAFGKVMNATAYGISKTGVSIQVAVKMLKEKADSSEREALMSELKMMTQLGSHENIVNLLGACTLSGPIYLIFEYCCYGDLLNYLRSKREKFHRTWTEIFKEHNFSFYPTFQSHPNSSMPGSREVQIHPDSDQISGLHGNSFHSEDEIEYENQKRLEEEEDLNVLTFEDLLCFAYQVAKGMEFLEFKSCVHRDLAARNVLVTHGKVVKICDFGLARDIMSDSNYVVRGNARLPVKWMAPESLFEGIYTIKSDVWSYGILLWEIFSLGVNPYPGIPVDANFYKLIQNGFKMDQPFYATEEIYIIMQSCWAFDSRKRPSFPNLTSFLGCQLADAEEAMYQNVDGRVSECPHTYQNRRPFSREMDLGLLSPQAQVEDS

[3] = molecular target: Serine/threonine-protein kinase Nek7 (Homo sapiens, UniProt Q8TDX7)
Sequence of Serine/threonine-protein kinase Nek7 (Q8TDX7 whole entry): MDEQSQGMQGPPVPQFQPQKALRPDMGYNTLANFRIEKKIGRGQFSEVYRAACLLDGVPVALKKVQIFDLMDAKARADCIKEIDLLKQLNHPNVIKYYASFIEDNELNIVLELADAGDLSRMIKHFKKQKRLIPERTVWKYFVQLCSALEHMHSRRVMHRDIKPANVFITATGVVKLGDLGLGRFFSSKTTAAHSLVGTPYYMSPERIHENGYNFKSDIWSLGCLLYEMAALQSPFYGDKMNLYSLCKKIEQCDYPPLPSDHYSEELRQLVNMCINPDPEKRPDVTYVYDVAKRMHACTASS

[4] = molecular target: High affinity nerve growth factor receptor (Homo sapiens, UniProt P04629)
Sequence of High affinity nerve growth factor receptor (P04629 whole entry): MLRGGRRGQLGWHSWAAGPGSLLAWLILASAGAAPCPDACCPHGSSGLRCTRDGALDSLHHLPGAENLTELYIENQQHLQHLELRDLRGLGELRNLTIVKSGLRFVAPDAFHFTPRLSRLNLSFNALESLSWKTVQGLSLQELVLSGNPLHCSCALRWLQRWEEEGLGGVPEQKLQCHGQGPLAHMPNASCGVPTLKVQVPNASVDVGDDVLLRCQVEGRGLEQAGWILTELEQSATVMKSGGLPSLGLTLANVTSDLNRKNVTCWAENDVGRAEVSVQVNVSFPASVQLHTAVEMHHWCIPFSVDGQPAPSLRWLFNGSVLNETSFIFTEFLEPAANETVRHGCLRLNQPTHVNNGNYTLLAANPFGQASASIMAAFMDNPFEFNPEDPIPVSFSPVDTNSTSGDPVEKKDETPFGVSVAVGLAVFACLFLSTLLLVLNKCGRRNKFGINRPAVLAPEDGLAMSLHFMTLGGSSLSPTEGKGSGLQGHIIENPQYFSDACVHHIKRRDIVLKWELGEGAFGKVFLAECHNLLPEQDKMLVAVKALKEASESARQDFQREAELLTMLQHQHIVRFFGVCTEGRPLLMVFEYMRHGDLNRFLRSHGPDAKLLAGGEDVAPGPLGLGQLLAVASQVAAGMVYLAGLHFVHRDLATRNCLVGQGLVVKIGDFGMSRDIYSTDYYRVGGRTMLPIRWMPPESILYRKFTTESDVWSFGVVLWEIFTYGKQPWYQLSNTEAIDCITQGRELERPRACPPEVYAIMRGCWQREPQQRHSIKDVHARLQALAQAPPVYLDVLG

[5] = molecular target: Serine/threonine-protein kinase PAK 6 (Homo sapiens, UniProt Q9NQU5)
Sequence of Serine/threonine-protein kinase PAK 6 (Q9NQU5 whole entry): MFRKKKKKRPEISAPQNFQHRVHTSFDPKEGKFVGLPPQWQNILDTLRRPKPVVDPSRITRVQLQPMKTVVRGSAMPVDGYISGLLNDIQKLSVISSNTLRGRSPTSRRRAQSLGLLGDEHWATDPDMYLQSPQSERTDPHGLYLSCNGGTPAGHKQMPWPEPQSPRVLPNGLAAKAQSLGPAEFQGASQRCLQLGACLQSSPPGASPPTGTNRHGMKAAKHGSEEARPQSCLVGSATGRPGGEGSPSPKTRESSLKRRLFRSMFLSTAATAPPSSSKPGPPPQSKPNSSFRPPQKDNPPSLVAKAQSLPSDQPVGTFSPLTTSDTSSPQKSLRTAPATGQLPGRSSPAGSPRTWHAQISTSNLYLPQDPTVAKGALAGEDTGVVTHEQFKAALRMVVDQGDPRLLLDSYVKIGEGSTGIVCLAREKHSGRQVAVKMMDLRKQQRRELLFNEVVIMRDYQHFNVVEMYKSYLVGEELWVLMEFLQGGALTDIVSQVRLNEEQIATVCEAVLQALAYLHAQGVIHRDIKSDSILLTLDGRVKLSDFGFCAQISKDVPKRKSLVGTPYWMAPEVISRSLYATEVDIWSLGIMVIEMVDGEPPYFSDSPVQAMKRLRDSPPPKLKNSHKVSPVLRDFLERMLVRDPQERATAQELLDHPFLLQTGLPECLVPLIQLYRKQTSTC

[6] = molecular target: Choline-phosphate cytidylyltransferase A (Homo sapiens, UniProt P49585)
Sequence of Choline-phosphate cytidylyltransferase A (P49585 whole entry): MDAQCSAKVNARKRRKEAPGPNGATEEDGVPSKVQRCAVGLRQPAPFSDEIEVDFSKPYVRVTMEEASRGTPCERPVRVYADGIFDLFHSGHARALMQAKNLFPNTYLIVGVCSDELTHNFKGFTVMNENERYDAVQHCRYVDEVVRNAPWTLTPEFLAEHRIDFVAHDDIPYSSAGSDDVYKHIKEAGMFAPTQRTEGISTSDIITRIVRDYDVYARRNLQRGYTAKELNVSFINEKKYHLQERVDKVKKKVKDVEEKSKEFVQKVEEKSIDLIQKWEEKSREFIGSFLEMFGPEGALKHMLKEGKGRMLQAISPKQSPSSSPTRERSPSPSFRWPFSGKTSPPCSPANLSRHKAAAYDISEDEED

[7] = molecular target: Phosphatidylethanolamine-binding protein 1 (Homo sapiens, UniProt P30086)
Sequence of Phosphatidylethanolamine-binding protein 1 (P30086 whole entry): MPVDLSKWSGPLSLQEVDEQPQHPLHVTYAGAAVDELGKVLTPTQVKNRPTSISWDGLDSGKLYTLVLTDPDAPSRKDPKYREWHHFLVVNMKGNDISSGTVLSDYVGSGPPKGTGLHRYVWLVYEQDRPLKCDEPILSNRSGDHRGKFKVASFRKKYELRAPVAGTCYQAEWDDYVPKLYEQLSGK

[8] = molecular target: Proto-oncogene tyrosine-protein kinase receptor Ret (Homo sapiens, UniProt P07949)
Sequence of Proto-oncogene tyrosine-protein kinase receptor Ret (P07949 whole entry): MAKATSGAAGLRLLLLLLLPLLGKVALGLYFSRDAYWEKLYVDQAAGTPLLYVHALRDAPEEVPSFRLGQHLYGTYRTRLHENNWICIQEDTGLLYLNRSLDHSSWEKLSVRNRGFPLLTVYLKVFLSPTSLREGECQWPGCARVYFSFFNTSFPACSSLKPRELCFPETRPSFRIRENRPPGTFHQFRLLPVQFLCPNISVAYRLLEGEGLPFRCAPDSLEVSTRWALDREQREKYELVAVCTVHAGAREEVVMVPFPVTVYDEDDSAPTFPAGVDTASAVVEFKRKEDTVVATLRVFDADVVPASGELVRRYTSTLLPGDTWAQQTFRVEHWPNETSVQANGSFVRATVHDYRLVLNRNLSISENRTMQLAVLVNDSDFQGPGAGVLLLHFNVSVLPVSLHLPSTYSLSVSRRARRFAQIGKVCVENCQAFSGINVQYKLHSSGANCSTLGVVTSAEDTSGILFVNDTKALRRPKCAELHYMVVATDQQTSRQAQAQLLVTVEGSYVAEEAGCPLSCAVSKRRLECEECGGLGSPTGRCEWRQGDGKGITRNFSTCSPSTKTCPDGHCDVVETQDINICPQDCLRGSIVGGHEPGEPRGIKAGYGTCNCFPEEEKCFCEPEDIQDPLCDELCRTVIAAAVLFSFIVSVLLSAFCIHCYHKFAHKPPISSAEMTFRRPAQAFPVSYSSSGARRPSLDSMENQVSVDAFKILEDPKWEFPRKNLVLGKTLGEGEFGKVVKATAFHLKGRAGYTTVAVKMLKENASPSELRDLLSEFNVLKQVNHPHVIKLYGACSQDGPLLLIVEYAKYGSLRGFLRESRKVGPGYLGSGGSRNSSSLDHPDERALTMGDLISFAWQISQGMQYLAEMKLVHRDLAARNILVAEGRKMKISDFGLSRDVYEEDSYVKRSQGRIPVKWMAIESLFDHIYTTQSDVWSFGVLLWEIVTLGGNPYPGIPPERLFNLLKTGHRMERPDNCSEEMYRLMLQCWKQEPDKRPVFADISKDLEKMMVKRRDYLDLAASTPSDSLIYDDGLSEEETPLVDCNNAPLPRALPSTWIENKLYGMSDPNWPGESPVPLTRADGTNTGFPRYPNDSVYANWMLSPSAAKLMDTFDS

[9] = molecular target: Dual specificity testis-specific protein kinase 1 (Homo sapiens, UniProt Q15569)
Sequence of Dual specificity testis-specific protein kinase 1 (Q15569 whole entry): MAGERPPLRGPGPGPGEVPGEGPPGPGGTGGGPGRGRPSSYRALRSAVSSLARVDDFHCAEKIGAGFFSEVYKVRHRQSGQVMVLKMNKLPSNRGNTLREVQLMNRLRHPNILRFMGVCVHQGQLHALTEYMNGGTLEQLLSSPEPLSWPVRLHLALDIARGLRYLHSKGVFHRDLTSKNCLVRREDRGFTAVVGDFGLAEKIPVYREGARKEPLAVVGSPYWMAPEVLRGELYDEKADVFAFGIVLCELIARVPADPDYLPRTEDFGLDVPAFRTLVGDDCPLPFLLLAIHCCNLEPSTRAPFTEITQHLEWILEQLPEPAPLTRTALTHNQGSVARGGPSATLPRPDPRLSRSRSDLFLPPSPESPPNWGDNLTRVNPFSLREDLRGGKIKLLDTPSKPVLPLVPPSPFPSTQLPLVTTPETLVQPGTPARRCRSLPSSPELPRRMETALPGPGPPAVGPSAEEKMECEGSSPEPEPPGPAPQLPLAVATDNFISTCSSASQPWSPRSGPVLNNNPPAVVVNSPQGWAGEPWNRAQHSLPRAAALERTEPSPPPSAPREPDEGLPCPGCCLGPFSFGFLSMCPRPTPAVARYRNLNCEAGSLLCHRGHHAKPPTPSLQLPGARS

Measured: Kd
Further: in the data inactive means no Kd found up to 30 µM.

Sequence of Dual specificity protein kinase CLK2 (P49760 whole entry): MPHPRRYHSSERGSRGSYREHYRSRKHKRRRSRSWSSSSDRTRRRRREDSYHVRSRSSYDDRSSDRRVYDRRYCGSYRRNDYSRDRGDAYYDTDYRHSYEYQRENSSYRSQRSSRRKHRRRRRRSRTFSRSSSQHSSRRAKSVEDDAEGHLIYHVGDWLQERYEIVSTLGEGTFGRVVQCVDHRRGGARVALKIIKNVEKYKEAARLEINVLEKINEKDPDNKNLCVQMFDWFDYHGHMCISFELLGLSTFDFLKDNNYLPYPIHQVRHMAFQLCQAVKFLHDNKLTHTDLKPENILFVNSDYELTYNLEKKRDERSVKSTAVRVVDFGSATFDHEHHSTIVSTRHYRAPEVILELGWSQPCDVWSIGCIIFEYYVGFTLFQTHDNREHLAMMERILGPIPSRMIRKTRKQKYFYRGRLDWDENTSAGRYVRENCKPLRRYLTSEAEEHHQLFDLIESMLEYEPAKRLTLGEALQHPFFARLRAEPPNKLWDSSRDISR

COc1ccc(-c2ccc3ncc4c(c3c2)n(-c2ccc(N3CCNCC3)c(C(F)(F)F)c2)c(=O)n4C)cn1 [BGT-226 FREE BASE]
inactive: [1] > 30 µM | UMP-CMP kinase > 30 µM | Ephrin type-A receptor 1 > 30 µM | [2] > 30 µM | [3] > 30 µM | [4] > 30 µM | [5] > 30 µM | [6] > 30 µM | [7] > 30 µM | [8] > 30 µM | [9] > 30 µM
